Assay results: patent US12497666B2, “Nucleic acid biomarker and use thereof” (Daiichi Sankyo Co., Ltd., priority 2013, dated 2025)
Where two headings read alike, the source gives them in different places.

Tested on: Stage IIIb/IV NSCLC
Experimental: In both portions of the study, subjects received 150 mg of erlotinib orally once daily. […] Tumors were to be assessed every 6 weeks (±3 days) up to the first 24 weeks of the study, then every 12 weeks (+7 days) independent of treatment cycle.
All efficacy analyses were performed on the full analysis set, which includes all subjects in the randomized analysis set who received at least one dose of randomized study medication. The primary efficacy endpoint was PFS. PFS is defined as the time from the date of randomization to the earlier of the dates of the first objective documentation of radiographic disease progression or death due to any cause. A subject who was alive with no Objective documentation of (radiographic) disease progression by the data cut-off date was to be censored at the date of the last evaluable tumor assessment. The key secondary efficacy endpoint, overall survival, was defined as the time from the date of randomization to death due to any cause and was analyzed in the same manner as the primary efficacy endpoint PFS.
Kaplan-Meier curves were generated for PFS and used to calculate medians and 95% CIs for each treatment group. […] Cox's proportional hazards model.
The stratification factors included histology (Adenocarcinoma vs Non-Adenocarcinoma) and best response to prior therapy (CR/PR/SD vs PD).
Unless otherwise indicated, log-rank p-values and HRs for PFS and OS were based on the primary analysis adjusted for the stratification factors at randomization as described above.

[1] = Enrolled/Randomized set, placebo + erlotinib
[2] = Full Analysis Set, Kaplan-Meier, placebo + erlotinib
[3] = Full Analysis Set, placebo + erlotinib
[4] = HRG high (dCt<3.9), placebo + erlotinib
[5] = HRG high and EGFR wild type, placebo + erlotinib

“erlotinib [Placebo + erlotinib, reference compound]” was tested, and the “On-Study Death” value [1] was 13 (18.3%) subjects (%), the “Primary Cause of On-Study Death: Adverse Event” value [1] was 5 (7.0%) subjects (%) and the “Primary Cause of On-Study Death: Disease Progression” value [1] was 8 (11.3%) subjects (%). For the same substance, the “Primary Reason for Discontinuing Study Treatment: Death” value [1] was 4 (5.6%) subjects (%), the “Primary Reason for Discontinuing Study Treatment: Progressive Disease (Radiographic Progression)” value [1] was 50 (70.4%) subjects (%) and the “Overall Survival, time to event, Median” value [2] was 7.2 months. For the same substance, the “Progression-Free Survival, time to event, Median” value (“Progression-Free Survival, time” for short) [2] was 1.6 months, the “Subjects (%) with events, OS” value [3] was 48 (67.6%) subjects (%) and the “Subjects (%) with events, PFS” value [3] was 59 (83.1%) subjects (%). The “number of subjects with the response being CP/PR” value [3] was 4 (5.6%) subjects (%), the “OS Rate at 1 Year (%)” value [4] was 32.4% and the “OS Rate at 6 Months (%)” value [4] was 49.4%. The “OS Rate at 9 Months (%)” value [4] was 49.4%, the “PFS Rate at 8 Weeks (%)” value [4] was 31.3% and the “PFS Rate at 14 Weeks (%)” value [4] was 18.8%. The “PFS Rate at 26 Weeks (%)” value [4] was 0.0%, the “Progression-Free Survival, time” value [4] was 1.4 months and the “Subjects (%) with events, OS” value [4] was 11 (61.1%) subjects (%). For the same substance, the “Subjects (%) with events, PFS” value [4] was 16 (88.9%) subjects (%), the “Overall Survival, time to event, Median” value (HRG high (dCt<3.9), preliminary, placebo + erlotinib) was 5.0 months and the “Progression-Free Survival, time” value [5] was 1.4 months. The “Subjects (%) with events, PFS” value [5] was 8 ( 88.9%) subjects (%), the “objective response (CR or PR)” value (HRG high, placebo + erlotinib) was 1 (5.6%) subjects (%) and the disease control rate (HRG high, placebo plus erlotinib) was 22.2%. The “Overall Survival, time to event, Median” value (HRG low, placebo + erlotinib) was 8.0 months, the “Progression-Free Survival, time” value (HRG low, placebo + erlotinib) was 1.4 months and the “Subjects (%) with events, OS” value (HRG low, placebo + erlotinib) was 11 (68.8%) subjects (%). For the same substance, the “Subjects (%) with events, PFS” value (HRG low, placebo + erlotinib) was 13 ( 81.3%) subjects (%).
